Experiment in all cases: inhibition of tumour cell growth, NCI panel, 48 h
In test [1] the test system is MDA-MB-468 breast.
The subject of test [2] is CAKI-1 renal.
Test [3] concerns LOX IMVI melanoma.
The test system of test [4] is KM12 colon.
Test [5] deals with HS 578T breast.
In test [6] the test system is MALME-3M melanoma.
Test [7] deals with OVCAR-3 ovarian.
Test [8] has as its system NCI/ADR-RES ovarian.
Test [9] relates to MCF7 breast.
Test [10] has as its system M14 melanoma.
In test [11] the test system is HL-60(TB) leukemia.
Test [12] deals with SF-268 CNS.
The subject of test [13] is OVCAR-5 ovarian.
For test [14], the system named is TK-10 renal.
Test [15] concerns A549 NSCLC.
For test [16], the system named is SK-MEL-2 melanoma.
Test [17] relates to EKVX NSCLC.
Test [18] concerns UACC-257 melanoma.
The test system of test [19] is ACHN renal.
Test [20] relates to SK-OV-3 ovarian.
For test [21], the system named is SN12C renal.
In test [22] the test system is HCT-116 colon.
Test [23] has as its system SNB-19 CNS.
The test system of test [24] is A498 renal.
Test [25] has as its system COLO 205 colon.
In test [26] the test system is SF-539 CNS.
For test [27], the system named is HCT-15 colon.
Test [28] has as its system U251 CNS.
Test [29] has as its system PC-3 prostate.
The subject of test [30] is NCI-H23 lung.
Test [31] relates to HCC-2998 colon.
Test [32] relates to HT29 colon.
The subject of test [33] is OVCAR-8 ovarian.
The test system of test [34] is HOP-62 NSCLC.
Test [35] concerns DU-145 prostate.
The test system of test [36] is NCI-H522 lung.
Test [37] concerns T-47D breast.
The test system of test [38] is SNB-75 CNS.
The subject of test [39] is UO-31 renal.
Test [40] deals with NCI-H460 lung.
Test [41] deals with HOP-92 NSCLC.
Test [42] concerns SK-MEL-5 melanoma.
Test [43] has as its system SF-295 CNS.
The subject of test [44] is UACC-62 melanoma.
The test system of test [45] is SW-620 colon.
The test system of test [46] is RXF 393 renal.
Test [47] relates to MDA-MB-435.
The test system of test [48] is CCRF-CEM leukemia.
Test [49] has as its system NCI-H226 lung.
For test [50], the system named is MOLT-4 leukemia.
The test system of test [51] is IGROV1 ovarian.
In test [52] the test system is K-562 leukemia.
Test [53] relates to SR leukemia.
Test [54] has as its system BT-549 breast.
For test [55], the system named is SK-MEL-28 melanoma.
Test [56] concerns MDA-MB-231 breast.
Test [57] has as its system RPMI-8226 leukemia.
In test [58] the test system is 786-0 renal.
Test [59] deals with OVCAR-4 ovarian.

Results on eleven compounds are retold here after PubChem BioAssay (NCI).

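Exposure lasted 48 hours, with cells grown in 96-well plates and compounds tested at five concentrations. GI50 marks 50% less growth. TGI: concentration producing complete growth inhibition.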 A value given as a limit tells only on which side of the number the result lay.

Regarding `CC1OC(n2c3ccccc3c3c4c(c5c6ccccc6[nH]c5c32)C(=O)N(CCN[C@@H]2CCC[C@H]2N)C4=O)CC(O)C1O` (stereo partly drawn), in test [1], the GI50 was 1150 nM and the TGI turned out to be 3 µM.
For the compound `COc1ccc(C(=O)/C=C/c2ccc(OC)c(OCc3ccccc3)c2)cc1OC`, the GI50 is 9.93 µM in test [2]; 2660 nM in test [3]; 3.93 µM in test [4]; 7.71 µM in test [5]; 25.1 µM in [6]; 2960 nM in test [7]. In addition, the GI50 was 3 µM in [8]; 2640 nM in test [9]; 9.79 µM in test [10]; 5.06 µM in test [11]; 8.91 µM in test [12]; 2970 nM in test [13]. Also, the GI50 in test [14] is 4.87 µM; in [15], 3.11 µM; in test [16], 14.4 µM; in test [17] it was 13.4 µM; in test [18], 6.57 µM; in [19], 6.86 µM. In addition, the GI50 in test [20] is 8.23 µM; in test [21], 2890 nM; in test [22] it was 3.35 µM; in test [23] it was 3.46 µM; in test [24] it was 17.5 µM; in [25], 4.33 µM. Besides, the GI50 in test [26] was 2040 nM; in [27], 2690 nM; in test [28], 3.02 µM; in test [29] it was 4.99 µM; in test [30], 4.39 µM; in test [1], 2940 nM. Moreover, the GI50 is 3.39 µM in test [31]; 4 µM in [32]; 3.25 µM in test [33]; 3.37 µM in test [34]; 3.83 µM in [35]; 3.18 µM in test [36]. Moreover, the GI50 in test [37] is 2800 nM; in test [38] it was 1590 nM; in [39], 2890 nM; in [40] it was 3.67 µM; in [41], 4.67 µM; in test [42], 11.7 µM. Also, the GI50 in test [43] was 5.43 µM; in [44], 3.81 µM; in [45], 3.04 µM; in test [46] it was 4.61 µM; in [47], 3.47 µM; in test [48], 3.22 µM. Further, the GI50 in [49] was 6.35 µM; in test [50], 2700 nM; in [51] it was 3.42 µM; in [52], 2860 nM; in [53], 2060 nM; in [54] it was 2550 nM. For the same compound, the GI50 in test [55] was 21.4 µM; in [56], 4.11 µM; in test [57] it was 2640 nM; in test [58] it was 4.13 µM; in test [59], 5.2 µM. In addition, the TGI in test [2] is greater than 100 µM; in [3], greater than 100 µM; in test [4], 38.6 µM; in test [5], 53.5 µM; in [6], greater than 100 µM; in [7], 19.6 µM. The TGI was greater than 100 µM in test [8]; greater than 100 µM in test [9]; greater than 100 µM in test [10]; 24.8 µM in [11]; 70.9 µM in [12]; greater than 100 µM in [13]. In addition, the TGI in test [14] was greater than 100 µM; in [15], greater than 100 µM; in test [16] it was 60.1 µM; in test [17], greater than 100 µM; in test [18] it was greater than 100 µM; in [19], greater than 100 µM. For the same compound, the TGI in test [20] was greater than 100 µM; in [21], greater than 100 µM; in test [22], greater than 100 µM; in [23] it was greater than 100 µM; in test [24] it was 61.4 µM; in [25] it was 38 µM. Moreover, the TGI in test [26] was 4.65 µM; in test [27], greater than 100 µM; in test [28] it was greater than 100 µM; in [29], greater than 100 µM; in test [30] it was 43.6 µM; in test [1] it was 19.6 µM. In addition, the TGI in test [31] was greater than 100 µM; in test [32], greater than 100 µM; in test [33] it was greater than 100 µM; in test [34], 82.6 µM; in test [35], greater than 100 µM; in test [36] it was 26 µM. Also, the TGI is 80.6 µM in test [37]; 7.21 µM in test [38]; greater than 100 µM in test [39]; 20.3 µM in test [40]; greater than 100 µM in test [41]; 27.5 µM in test [42]. The TGI in test [43] was greater than 100 µM; in test [44], 33.9 µM; in test [45] it was greater than 100 µM; in test [46], greater than 100 µM; in test [47], greater than 100 µM; in test [48], greater than 100 µM. Further, the TGI was 95.9 µM in test [49]; 8.73 µM in [50]; greater than 100 µM in test [51]; greater than 100 µM in [52]; 8.61 µM in test [53]; 8.42 µM in test [54]. Moreover, the TGI was greater than 100 µM in [55]; greater than 100 µM in [56]; greater than 100 µM in test [57]; greater than 100 µM in [58]; 61.5 µM in [59].
As for `Cc1cc(Cl)cc(NS(=O)(=O)c2ccc(-c3cnc(C4CC4)o3)cc2)c1`, in test [1], the GI50 was 120 nM and the TGI is 4.44 µM.
`c1csc(-c2cn3nc(-c4c[nH]c5ccccc45)sc3n2)c1`: in test [1], the GI50 is 2920 nM and the TGI came out at 27.8 µM.
In the case of `O=C1C(N2CC2)=C(N2CC2)C(=O)C(N2CC2)=C1N1CC1`, in test [1], the GI50 was 395 nM and the TGI was 2.44 µM.
For `COc1ccc(-c2nc(/C=N/Nc3cc(C)nc4ccc(Cl)cc34)c(C)o2)cc1` the same measures were 1930 nM and 3.71 µM.
Turning to `C=CC1CN2CCC1CC2C(O)c1ccnc2ccc(OC)cc12` (stereo not drawn), in [1], the GI50 is greater than 100000 nM and the TGI was greater than 100 µM.
For `COc1ccc(C2CC(C)(O)Oc3cc4c(cc32)OCO4)cc1` (stereo not drawn) the same measures were 18900 nM and 55.7 µM.
Taken in the same sequence, the figures for `CNC(=O)c1cccc2cc(Oc3ccnc4cc(OCC5(N)CC5)c(OC)cc34)ccc12` were 7410 nM and 22.6 µM.
For `COC(=O)[C@@]12OC[C@]34[C@H]([C@@H](O)[C@@H]1O)[C@@]1(C)[C@H](O)C(=O)C=C(C)[C@@H]1C[C@H]3OC(=O)C(OC(C)=O)[C@@H]24` (stereo partly drawn) the same measures were 20.8 nM and 0.0624 µM.
`CC(=O)C(=Cc1ccc(C=C(C(C)=O)C(C)=O)cc1)C(C)=O`: in [1], the GI50 was 1510 nM and the TGI is 3.14 µM.
